Assay results as given in patent publication US20240238423A9, “TETRAHYDROISOQUINOLINE HETEROBIFUNCTIONAL BCL-XL DEGRADERS” (Treeline Biosciences, Inc., priority 2022, published 2024).
Like-named read-outs stand apart in the source and are kept apart here.

Target: T1, Human BCL-XL protein (N-terminal HiBiT tagged BCL-XL in HT1080 cells) (Homo sapiens, UniProt Q07817)
T1 construct: expressed in transfected cells; host or cells: HT-1080 (ATCC CCL-121), stably transduced with lentivirus pLV-UBC-N-HiBiT-BCL-XL-PGK-puro and selected with puromycin
T1 sequence (Q07817 whole entry): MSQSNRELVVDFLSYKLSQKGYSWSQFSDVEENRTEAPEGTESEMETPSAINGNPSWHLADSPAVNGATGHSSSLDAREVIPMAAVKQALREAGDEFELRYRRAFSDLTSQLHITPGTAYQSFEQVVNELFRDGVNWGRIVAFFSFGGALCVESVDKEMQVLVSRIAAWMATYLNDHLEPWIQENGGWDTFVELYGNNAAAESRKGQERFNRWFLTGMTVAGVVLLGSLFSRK
Assay: HiBiT based degradation assay
Type: cell-based
Settings: HT1080 cells expressing HiBiT-BCL-XL; for Ymin (24 h) / Ymin (6 h): BCL-XL degradation normalized with DMSO control; for DC50: BCL-XL degradation
Outline: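 This HiBiT degradation assay measured loss of BCL-XL in HT1080 cells that stably express an N-terminal HiBiT-BCL-XL fusion delivered by lentivirus. Cells were added to compound-spotted 384-well plates, and luminescence was read on a PHERAstar FSX reader. Signal was expressed relative to DMSO controls, curves were fitted by four-parameter logistic regression, and for hook-shaped curves the Ymin point served as the bottom plateau when calculating EC50.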

Structure (SMILES)	Ymin (24 h)	DC50 (24 h, read-out: EC50 (24 h)) [nM]	Ymin (6 h)	DC50 (6 h, read-out: EC50 (6 h)) [nM]
Cc1c(OCCCN2CCN(CC(=O)Nc3cccc4c(C5CCC(=O)NC5=O)nn(C)c34)[C@H](C(F)(F)F)C2)cccc1-c1ccc(N2CCc3cccc(C(=O)Nc4nc5ccccc5s4)c3C2)nc1C(=O)O (stereo partly drawn) [Compound 218b, 6-(8-(benzo[d]thiazol-2-ylcarbamoyl)-3,4-dihydroisoquinolin-2(1H)-yl)-3-(3-(3-((3S)-4-(2-((3-(2,6-dioxopiperidin-3-yl)-1-methyl-1H-indazol-7-yl)amino)-2-oxoethyl)-3-(trifluoromethyl)piperazin-1-yl)propoxy)-2-methylphenyl)picolinic acid]	C (Ymin ≥ 70%)	100 to 1000	C (Ymin ≥ 70%)	1000 to 10000
Cc1c(OCC2CC3(CCN(CC(=O)Nc4cccc5c(C6CCC(=O)NC6=O)nn(C)c45)CC3)C2)cccc1-c1ccc(N2CCc3cccc(C(=O)Nc4nc5ccccc5s4)c3C2)nc1C(=O)O (centres unmarked) [Compound 226, 6-[8-(1,3-benzothiazol-2-ylcarbamoyl)-3,4-dihydro-1H-isoquinolin-2-yl]-3-[3-[[7-[2-[[3-(2,6-dioxo-3-piperidyl)-1-methyl-indazol-7-yl]amino]-2-oxo-ethyl]-7-azaspiro[3.5]nonan-2-yl]methoxy]-2-methyl-phenyl]pyridine-2-carboxylic acid]	B (50% ≤ Ymin < 70%)	100 to 1000	C (Ymin ≥ 70%)	< 100
Cn1nc(C2CCC(=O)NC2=O)c2ccc(NC(=O)CN3CCN(CCOc4cccc(-c5ccc(N6CCc7cccc(C(=O)Nc8nc9ccccc9s8)c7C6)nc5C(=O)O)c4C(F)(F)F)CC3)cc21 (centres unmarked) [Compound 126, 6-(8-(benzo[d]thiazol-2-ylcarbamoyl)-3,4-dihydroisoquinolin-2(1H)-yl)-3-(3-(2-(4-(2-((3-(2,6-dioxopiperidin-3-yl)-1-methyl-1H-indazol-6-yl)amino)-2-oxoethyl)piperazin-1-yl)ethoxy)-2-(trifluoromethyl)phenyl)picolinic acid]			B (50% ≤ Ymin < 70%)	100 to 1000
Cc1cc(OCCCN2CCN(CC(=O)N3CCN(c4cccc5c(C6CCC(=O)NC6=O)nn(C)c45)CC3)CC2)ccc1-c1ccc(N2CCc3cccc(C(=O)Nc4nc5ccccc5s4)c3C2)nc1C(=O)O (centres unmarked) [Compound 152, 6-(8-(Benzo[d]thiazol-2-ylcarbamoyl)-3,4-dihydroisoquinolin-2(1H)-yl)-3-(4-(3-(4-(2-(4-(3-(2,6-dioxopiperidin-3-yl)-1-methyl-1H-indazol-7-yl)piperazin-1-yl)-2-oxoethyl)piperazin-1-yl)propoxy)-2-methylphenyl)picolinic acid]	A (Ymin < 50%)	< 100	B (50% ≤ Ymin < 70%)	< 100
Cc1c(OCC2CC3(CCN(CC(=O)Nc4ccc5c(C6CCC(=O)NC6=O)nn(C)c5c4)CC3)C2)cccc1-c1ccc(N2CCc3cccc(C(=O)Nc4nc5ccccc5s4)c3C2)nc1C(=O)O (centres unmarked) [Compound 156, 6-(8-(benzo[d]thiazol-2-ylcarbamoyl)-3,4-dihydroisoquinolin-2(1H)-yl)-3-(3-((7-(2-((3-(2,6-dioxopiperidin-3-yl)-1-methyl-1H-indazol-6-yl)amino)-2-oxoethyl)-7-azaspiro[3.5]nonan-2-yl)methoxy)-2-methylphenyl)picolinic acid]	A (Ymin < 50%)	< 100	A (Ymin < 50%)	< 100
Cc1c(O[C@H]2CC[C@H](CCN3CCN(c4cccc5c(C6CCC(=O)NC6=O)nn(C)c45)CC3)CC2)cccc1-c1ccc(N2CCc3cccc(C(=O)Nc4nc5ccccc5s4)c3C2)nc1C(=O)O (some centres unmarked) [Compound 215a, 6-(8-(benzo[d]thiazol-2-ylcarbamoyl)-3,4-dihydroisoquinolin-2(1H)-yl)-3-(3-(((1r,4r)-4-(2-(4-(3-(2,6-dioxopiperidin-3-yl)-1-methyl-1H-indazol-7-yl)piperazin-1-yl)ethyl)cyclohexyl)oxy)-2-methylphenyl)picolinic acid]	C (Ymin ≥ 70%)	< 100		
Cc1c(OCCCN2CCN(CC3CCN(c4cccc5c(C6CCC(=O)NC6=O)nn(C)c45)CC3)CC2)cccc1-c1ccc(N2CCc3cccc(C(=O)Nc4nc5ccccc5s4)c3C2)nc1C(=O)O (centres unmarked) [Compound 221, 6-(8-(benzo[d]thiazol-2-ylcarbamoyl)-3,4-dihydroisoquinolin-2(1H)-yl)-3-(3-(3-(4-((1-(3-(2,6-dioxopiperidin-3-yl)-1-methyl-1H-indazol-7-yl)piperidin-4-yl)methyl)piperazin-1-yl)propoxy)-2-methylphenyl)picolinic acid]	A (Ymin < 50%)	< 100		

Next, values leading:

Ymin (24 h)	DC50 (24 h, read-out: EC50 (24 h)) [nM]	Ymin (6 h)	DC50 (6 h, read-out: EC50 (6 h)) [nM]	Structure (SMILES)
B (50% ≤ Ymin < 70%)	< 100			Cc1c(O[C@H]2CC[C@H](CC(F)(F)CN3CCN(c4ccc5c(C6CCC(=O)NC6=O)nn(C)c5c4)CC3)CC2)cccc1-c1ccc(N2CCc3cccc(C(=O)Nc4nc5ccccc5s4)c3C2)nc1C(=O)O (some centres unmarked) [Compound 212a, 6-(8-(benzo[d]thiazol-2-ylcarbamoyl)-3,4-dihydroisoquinolin-2(1H)-yl)-3-(3-(((1r,4r)-4-(3-(4-(3-(2,6-dioxopiperidin-3-yl)-1-methyl-1H-indazol-6-yl)piperazin-1-yl)-2,2-difluoropropyl)cyclohexyl)oxy)-2-methylphenyl)picolinic acid]
A (Ymin < 50%)	< 100	B (50% ≤ Ymin < 70%)	< 100	Cc1c(OCCCCCCCN2CCN(c3ccc4c(C5CCC(=O)NC5=O)nn(C)c4c3)CC2)cccc1-c1ccc(N2CCc3cccc(C(=O)Nc4nc5ccccc5s4)c3C2)nc1C(=O)O (centres unmarked) [Compound 137, 6-(8-(benzo[d]thiazol-2-ylcarbamoyl)-3,4-dihydroisoquinolin-2(1H)-yl)-3-(3-((7-(4-(3-(2,6-dioxopiperidin-3-yl)-1-methyl-1H-indazol-6-yl)piperazin-1-yl)heptyl)oxy)-2-methylphenyl)picolinic acid]
C (Ymin ≥ 70%)	< 100			Cc1cc(OC[C@@H](C)CC2CCN(CC(=O)Nc3ccc4c(C5CCC(=O)NC5=O)nn(C)c4c3)CC2)ccc1-c1ccc(N2CCc3cccc(C(=O)Nc4nc5ccccc5s4)c3C2)nc1C(=O)O (stereo in doubt) [Compound 271b, 6-(8-(benzo[d]thiazol-2-ylcarbamoyl)-3,4-dihydroisoquinolin-2(1H)-yl)-3-(4-((2S)-3-(1-(2-((3-(2,6-dioxopiperidin-3-yl)-1-methyl-1H-indazol-6-yl)amino)-2-oxoethyl)piperidin-4-yl)-2-methylpropoxy)-2-methylphenyl)picolinic acid]
C (Ymin ≥ 70%)	< 100	C (Ymin ≥ 70%)	1000 to 10000	Cc1c(Oc2ccccc2CCCC(=O)Nc2ccc3c(C4CCC(=O)NC4=O)nn(C)c3c2)cccc1-c1ccc(N2CCc3cccc(C(=O)Nc4nc5ccccc5s4)c3C2)nc1C(=O)O (centres unmarked) [Compound 129, 6-(8-(benzo[d]thiazol-2-ylcarbamoyl)-3,4-dihydroisoquinolin-2(1H)-yl)-3-(3-(2-(4-((3-(2,6-dioxopiperidin-3-yl)-1-methyl-1H-indazol-6-yl)amino)-4-oxobutyl)phenoxy)-2-methylphenyl)picolinic acid]
B (50% ≤ Ymin < 70%)	< 100			Cc1c(OCCCN2CCN(CC(=O)Nc3ccc4c(C5CCC(=O)NC5=O)nn(C)c4c3)C[C@H]2C(F)(F)F)cccc1-c1ccc(N2CCc3cccc(C(=O)Nc4nc5ccccc5s4)c3C2)nc1C(=O)O (stereo partly drawn) [Compound 245b, 6-(8-(benzo[d]thiazol-2-ylcarbamoyl)-3,4-dihydroisoquinolin-2(1H)-yl)-3-(3-(3-((2S)-4-(2-((3-(2,6-dioxopiperidin-3-yl)-1-methyl-1H-indazol-6-yl)amino)-2-oxoethyl)-2-(trifluoromethyl)piperazin-1-yl)propoxy)-2-methylphenyl)picolinic acid]
A (Ymin < 50%)	< 100			Cc1cc(O[C@H]2CC[C@H](CCCN3CCN(c4cccc5c(C6CCC(=O)NC6=O)nn(C)c45)CC3)CC2)ccc1-c1ccc(N2CCc3cccc(C(=O)Nc4nc5ccccc5s4)c3C2)nc1C(=O)O (some centres unmarked) [Compound 250a, 6-(8-(benzo[d]thiazol-2-ylcarbamoyl)-3,4-dihydroisoquinolin-2(1H)-yl)-3-(4-(((1s,4r)-4-(3-(4-(3-(2,6-dioxopiperidin-3-yl)-1-methyl-1H-indazol-7-yl)piperazin-1-yl)propyl)cyclohexyl)oxy)-2-methylphenyl)picolinic acid]
A (Ymin < 50%)	< 100			Cc1c(O[C@H]2CC[C@H](CCCCN3CCC[C@H](c4cccc5c(C6CCC(=O)NC6=O)nn(C)c45)C3)CC2)cccc1-c1ccc(N2CCc3cccc(C(=O)Nc4nc5ccccc5s4)c3C2)nc1C(=O)O (single isomer, unassigned) [Compound 351a]
A (Ymin < 50%)	< 100	B (50% ≤ Ymin < 70%)	< 100	Cc1c(O[C@H]2CC[C@H](CCCN3CCN(c4ccc5c(C6CCC(=O)NC6=O)nn(C)c5c4)CC3)CC2)cccc1-c1ccc(N2CCc3cccc(C(=O)Nc4nc5ccccc5s4)c3C2)nc1C(=O)O (some centres unmarked) [Compound 148a, 6-(8-(benzo[d]thiazol-2-ylcarbamoyl)-3,4-dihydroisoquinolin-2(1H)-yl)-3-(3-(((1s,4r)-4-(3-(4-(3-(2,6-dioxopiperidin-3-yl)-1-methyl-1H-indazol-6-yl)piperazin-1-yl)propyl)cyclohexyl)oxy)-2-methylphenyl)picolinic acid]
